Reference: patent publication US8486968B2, “Compounds” (Boehringer Ingelheim International GmbH, priority 2010, dated 2013)

Tests used:
[1] = target: T1, mPGES-1 (Homo sapiens, UniProt O14684); experiment: A549 cell-based assay (PGE2 formation, IL-1β stimulated, 50% human serum); design: host or cells: A549 cells
T1 sequence (O14684 1-152): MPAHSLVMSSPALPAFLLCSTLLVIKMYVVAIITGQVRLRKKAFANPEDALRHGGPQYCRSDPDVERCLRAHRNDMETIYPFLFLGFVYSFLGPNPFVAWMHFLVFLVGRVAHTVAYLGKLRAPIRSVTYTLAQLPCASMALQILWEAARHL
Experimental: Although the enzymatic assay is a high throughput assay the disadvantage is that it uses a recombinant protein which is not in its natural environment. Accordingly a cellular assay was established in which a cell line of human origin (A549) expressing the mPGES-1 protein was used. In addition in order to mimic the situation in humans in which compounds can be bound to plasma proteins 50% human serum is added in the assay. By having the combination of testing mPGES-1 in a cellular environment and the presence of 50% human serum this assay has a higher relevance to judge the therapeutic potential of a mPGES-inhibitor than the pure enzyme assay.
A549 cells (ATCC: CCL-185) are grown to about 90% confluence in F-12K Nutrient Mixture (Kaighn's Mod. Gibco) containing 10% FBS in a humified incubator at 37° C. and 5% CO2. Cells were detached using Trypsin-EDTA. A549 cells were seeded in a 384-well collagene plate at a density of 7000 cells/well (50 μl) in F-12 medium containing 1% Penicillin-Streptomycin and 50% human serum. The cells were allowed to attach for 3-4 h. After that the cells were incubated for 20-24 h in F-12k medium supplemented with 50% human serum, 1% Penicillin-Streptomycin and containing IL-1β at a final concentration of 5 ng/ml as well as 10 nM arachidonic acid in the presence of a vehicle or a test compound. The total volume is 100 μl.
Concentrations of PGE2 in the cell free medium (10 μl) were measured using a commercially available HTRF kit from Cisbio (as described above). The PGE2 formation in the absence of test compound was taken as 100%.
IC50 values were derived from at 6-8 point titrations using conventional software.

[2] = target: T1, mPGES-1; experiment: mPGES-1 enzyme assay (HTRF detection of PGE2); type: biochemical; design: made in house; host or cells: Rosetta E. coli (membrane/microsome fraction)
Experimental: Microsomes from Rosetta E. coli bacteria expressing recombinant human mPGES-1 can be derived as described below:
Inoculate 5 ml LB with Ampicilin (50 μg/ml) and Chloramphenicol (34 μg/ml) with bacteria from freeze culture. Incubate 8 h at 37° C. with 200 rpm. Thereafter, inoculate 500-1000 ml LB containing Amp and Chloro with the 5 ml on culture and grow to OD640 of 0.8-1.0. Chill the culture to +4° C. before induction. Induce the culture with IPTG at a final concentration of 400 μM. Express the protein at room temp 18-23° C. with 200 rpm shaking over night.
The following steps can be performed on the following day: • 1. Spin down the cells in 250 ml centrifuge flasks for 15 min at 7000 rpm (Beckmann Coulte Avanti J-E centrifuge) • 2. Dissolve the pellet from 250 ml culture in 12.5 ml homogenization buffer • 3. (15 mM Tris-HCL pH8, 1 mM EDTA pH8, […], 2.5 mM GSH, 1 Tablet Protease inhibitor per 50 ml buffer) • 4. Disintegrate the cells by sonication, 5×10 seconds at 48% amplitude of a 750 W sonifier • 5. Add 2.5 ml MgCl2 (100 mM) and DNase 12.5 μl (0.8 mg/ml) and incubate on ice for 30 min • 6. Spin down the bacteria debris and save the supernatant, 7000 rpm for 15 min • 7. Isolate the protein containing membranes in the supernatant by ultracentrifugation 120000×g for 2 hour at 4° C. (Sorvall T880 rotor). • 8. Discard the supernatant and dissolve the pellet in 20 mM Potassium phosphate buffer pH 7.4 (KH2PO4 and K2HPO4) buffer by sonication (5×10 s, 30% of a 50 W sonifier) and aliquot the enzyme and store aliquots at −80° C.
Before each experiment is performed an aliquot of the enzyme is thawed and it can then be dissolved in 0.1 M Potassium phosphate buffer pH7.4 (KH2PO4 and K2HPO4) buffer containing 2.5 mM GSH.
The aim of this assay is the determine the affinity of a test compound for the mPGES-1 enzyme.
47 μl of recombinant human mPGES-1 (˜0.5 μg protein/well) containing microsomal suspension in a buffer containing GSH, (2.5 mmol/L L-Glutathione reduced, dissolved in 0.1 mol/L Phosphat Buffer pH 7.4) is dispensed in a 384-well plate and thereafter 1 μl of the test compound(s) is/are added and incubated for 25 minutes at room temperature. The enzyme reaction is started by the addition of 2 μl PGH2 (final conc. 2 μM) dissolved in water-free Diglyme. After 60 seconds the reaction is terminated by addition of a stop solution containing FeCl2 (10 μL 0.074 mol/l FeCl2). The samples are diluted between 1:25 in PBS (Phosphate Buffered Saline). 10 μl of the diluted samples are transferred to 384-well low volume plate. In order to quantify the amount of PGE2 that has been formed, a homogenous time resolved fluorescent (HTRF) detecting of PGE2 has been performed using a commercially available kit from Cisbio according to the manufactures recommendation. This HTRF-based assay has been described in detail (see: Goedken et al., J Biomol Screen, 2008, 13(7), 619-625). Briefly, the diluted samples are mixed with 5 μl PGE2-d2 conjungate and 5 μl anti-PGE2 cryptate conjungate. After an incubation period of the plates over night, the fluorescence is measured by the use of an appropriate microplate reader.
The fluorescence of Europium cryptate (maxex=307 nm, maxem=620 nm) and d2-PGE2 (maxex=620 nm, maxem=665 nm) are measured.
The extent of the specific HTRF is measured as a ratio of the emission intensity at 665 nm vs. that at 620 nm at an excitation puls of 320 nm. The quantification plate contains also wells with different concentrations of PGE2 as calibration curve for the calculation of the PGE2 concentrations from the HTRF ratio values.
From all mPGES enzyme assay the background is subtracted and the IC50 is calculated over a nonlinear regression with conventional software.

[3] = A549 cells, IL-1β 5 ng/ml, 20-24 h, Table B, read-out: mPGES-1 inhibitory effect, IC50, cell assay
[4] = recombinant human mPGES-1 microsomes, PGH2 2 μM, Table A, read-out: mPGES-1 inhibitory effect, IC50, enzyme assay
[5] = Table C comparison of enzym and cell IC50, A549 cells, read-out: Cell IC50
[6] = Table C comparison of enzym and cell IC50, read-out: Enzym IC50

Row | SMILES | IC50 [1, 3] [nM] | IC50 [2, 4] [nM] | IC50 [1, 5] [nM] | IC50 [2, 6] [nM]
1 | CC(C)(C)C(=O)NCc1ccc(Cl)c(Nc2nc3cc(C(=O)N[C@H]4CC[C@H](C(F)(F)F)CC4)c(N4CCOCC4)nc3n2CC(F)F)c1Cl [Example 25] | 7 | 4 | – | –
2 | CC(C)(C)C(=O)NCc1ccc(Cl)c(Nc2nc3cc(C(=O)N[C@H]4CC[C@H](C(F)(F)F)CC4)c(N4CC[C@H](F)C4)nc3[nH]2)c1Cl [Example 8] | 11 | 2 | – | –
3 | Cn1c(Nc2c(Cl)ccc(CNC(=O)C(C)(C)C)c2Cl)nc2cc(C(=O)Nc3cccc(C(F)(F)F)n3)c(N3CCC(C(F)(F)F)CC3)nc21 [Example 44] | 56 | 4 | – | –
4 | CN(C)C(=O)Cn1c(Nc2c(Cl)ccc(CNC(=O)C(C)(C)C)c2Cl)nc2cc(C(=O)N[C@H]3CC[C@H](C(F)(F)F)CC3)c(N3CCC(C(F)(F)F)CC3)nc21 [Example 29] | 39 | 10 | – | –
5 | Cn1c(Nc2c(Cl)ccc(CNC(=O)C(C)(C)C)c2Cl)nc2cc(C(=O)NCc3ccc(F)cc3C(F)(F)F)c(N3CCC(C(F)(F)F)CC3)nc21 [Example 38] | 16 | 2 | – | –
6 | Cn1c(Nc2c(Cl)ccc(CNC(=O)C(C)(C)C)c2Cl)nc2cc(C(=O)NC(c3ccccn3)C(F)(F)F)c(N3CCC(C(F)(F)F)CC3)nc21 (stereo not shown) [Example 42] | 4 | 2 | – | –
7 | Cn1c(Nc2cc(CNC(=O)C3(C(F)(F)F)CC3)ccc2Cl)nc2cc(C(=O)Nc3ccc(F)c(Cl)c3)c(OCC(F)F)cc21 [reference compound] | – | – | 8 | 1
8 | Cn1c(Nc2c(Cl)ccc(CNC(=O)C(C)(C)C)c2Cl)nc2cc(C(=O)NC(Cc3ccccc3)C(F)(F)F)c(N3CCC(C(F)(F)F)CC3)nc21 (stereo not shown) [Example 39] | 25 | – | – | –
9 | O=C(N[C@H]1CC[C@H](C(F)(F)F)CC1)c1cc2nc(Nc3c(Cl)cc(F)cc3Cl)[nH]c2nc1OCC(F)(F)F [reference compound] | – | – | 43 | 2
10 | CN(CC(F)F)c1nc2[nH]c(Nc3c(Cl)ccc(CNC(=O)C(C)(C)C)c3Cl)nc2cc1C(=O)NCC(F)F [Example 11] | 47 | 10 | – | –

More lines, now with the values ahead:

Row | IC50 [1, 3] [nM] | IC50 [2, 4] [nM] | IC50 [1, 5] [nM] | IC50 [2, 6] [nM] | SMILES
11 | 3 | 1 | – | – | CN(CC(F)F)c1nc2[nH]c(Nc3c(Cl)ccc(CNC(=O)C(C)(C)C)c3Cl)nc2cc1C(=O)N[C@H]1CC[C@H](C(F)(F)F)CC1 [Example 4]
12 | 6 | 4 | – | – | Cn1c(Nc2c(Cl)ccc(CNC(=O)C(C)(C)C(F)(F)F)c2Cl)nc2cc(C(=O)N[C@H]3CC[C@H](C(F)(F)F)CC3)c(N3CC[C@@H](F)C3)nc21 [Example 19]
13 | – | 9 | – | – | COCCN(C)c1nc2c(cc1C(=O)N[C@H]1CC[C@H](C(F)(F)F)CC1)nc(Nc1cc(CNC(=O)C3(C(F)(F)F)CC3)ccc1Cl)n2C [Example 6]
14 | 7 | 5 | – | – | Cn1c(Nc2cc(CNC(=O)C3(C(F)(F)F)CC3)ccc2Cl)nc2cc(C(=O)N[C@H]3CC[C@H](C(F)(F)F)CC3)c(N3CCC(C(F)(F)F)CC3)nc21 [Example 1, N-(trans-4-Trifluoromethyl-cyclohexyl)-2-{2-chloro-5-[(1-trifluoromethyl-cyclopropyl-carbonylamino)methyl]-phenylamino}-5-[4-trifluoromethyl-piperidinyl]-3-methyl-3H-imidazo[4,5-b]pyridine-6-carboxamide]
15 | 90 | 4 | – | – | CN(Cc1nncn1C)c1nc2c(cc1C(=O)N[C@H]1CC[C@H](C(F)(F)F)CC1)nc(Nc1c(Cl)ccc(CNC(=O)C(C)(C)C)c1Cl)n2C [Example 21]
16 | 3 | 2 | – | – | CN(c1nc2c(cc1C(=O)N[C@H]1CC[C@H](C(F)(F)F)CC1)nc(Nc1c(Cl)ccc(CNC(=O)C(C)(C)C)c1Cl)n2C)C1COC1 [Example 20]
17 | 5 | 1 | – | – | Cn1c(Nc2c(Cl)ccc(CNC(=O)C(C)(C)C)c2Cl)nc2cc(C(=O)N[C@H]3CC[C@H](C(F)(F)F)CC3)c(N(CC3CC3)C3CC3)nc21 [Example 23]
18 | – | – | 161 | 4 | Cn1c(Nc2c(Cl)cc(F)cc2Cl)nc2cc(C(=O)N[C@H]3CC[C@H](C(F)(F)F)CC3)c(OCC(F)F)nc21 [reference compound]
